The text below walks through data of BindingDB's records for doi:10.1021/jm00008a002 (Warner-Lambert, 1995).

In this assay the target is Endothelin-1 receptor (Oryctolagus cuniculus). Briefly: Tested for antagonistic activity against Endothelin A receptor in the rabbit renal artery vascular smooth muscle cells.

The term IC50 denotes the concentration that gives 50% inhibition.

SMILES strings stand for the structures.

`COc1ccc(C2(O)OC(=O)C(c3ccc4c(c3)OCO4)=C2Cc2ccc(OC)c(C)c2)cc1` (configuration not stated) [3-Benzo[1,3]dioxol-5-yl-5-hydroxy-4-(4-methoxy-3-methyl-benzyl)-5-(4-methoxy-phenyl)-5H-furan-2-one] returned an IC50 of 6 nM.

In the case of `COc1ccc(CC2=C(c3ccc(Cl)c(Cl)c3)C(=O)OC2(O)c2ccc(OC)cc2)cc1` (configuration not stated) [3-(3,4-Dichloro-phenyl)-5-hydroxy-4-(4-methoxy-benzyl)-5-(4-methoxy-phenyl)-5H-furan-2-one], the IC50 amounted to 310 nM.
